From the supplement of paper PMC10307832

How the values were obtained:
Test in all cases: relative viability (nuclei count vs DMSO), 5 days (fraction); higher = more cells survive
[1] = compound: C/C(=N\NC(=S)N1CCC1)/C2=CC=CC=N2 + COc1cccc2cc(-c3nc([C@H]4CC[C@H](C(=O)O)CC4)n4ncnc(N)c34)[nH]c12 [OSI-027] (partner 0.5 µM)
In short: (§1)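 Relative viability equals treated-well nuclei counts divided by vehicle-well nuclei counts. Counts came from 4× images of lung cancer cell lines grown in 1536-well plates for 5 days after pin-tool dosing on the day after seeding. Dosing used one drug alone or a fixed anchor-drug dose plus five library-drug doses (not always all listed) in √10 steps, and values are medians of duplicate plates.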

[2] = compound: C/C(=N\NC(=S)N1CCC1)/C2=CC=CC=N2 + CS(=O)(=O)CCNCc1ccc(-c2ccc3ncnc(Nc4ccc(OCc5cccc(F)c5)c(Cl)c4)c3c2)o1 [Lapatinib] (partner 2 µM)
In short: as §1

[3] = compound: C/C(=N\NC(=S)N1CCC1)/C2=CC=CC=N2 + C[C@]1(O)C[C@@H](c2nc(-c3ccc4ccc(-c5ccccc5)nc4c3)c3c(N)nccn32)C1 [Linsitinib] (partner 1 µM)
In short: as §1

[4] = compound: C/C(=N\NC(=S)N1CCC1)/C2=CC=CC=N2 + Cc1nc(NC(=O)N2CCC[C@H]2C(N)=O)sc1-c1ccnc(C(C)(C)C(F)(F)F)c1 [Alpelisib] (partner 2 µM)
In short: as §1

Cell Line NCI-H1993 has a relative viability ([1]; first compound 0.05 µM) of 0.519, a relative viability ([1]; first compound 0.1581 µM) of 0.542 and a relative viability ([1]; first compound 0.5 µM) of 0.516. The relative viability ([1]; first compound 1.581 µM) was 0.541, the relative viability ([1]; first compound 5 µM) was 0.545 and the relative viability ([2]; first compound 0.05 µM) was 0.59. It also gave a relative viability ([2]; first compound 0.1581 µM) of 0.634, a relative viability ([2]; first compound 0.5 µM) of 0.619 and a relative viability ([2]; first compound 1.581 µM) of 0.58. For the same cell line, the relative viability ([2]; first compound 5 µM) was 0.543, the relative viability ([3]; first compound 0.05 µM) was 0.643 and the relative viability ([3]; first compound 0.1581 µM) was 0.703. For the same cell line, the relative viability ([3]; first compound 0.5 µM) was 0.58, the relative viability ([3]; first compound 1.581 µM) was 0.614 and the relative viability ([3]; first compound 5 µM) was 0.53. It also gave a relative viability ([4]; first compound 0.05 µM) of 0.67, a relative viability ([4]; first compound 0.1581 µM) of 0.57 and a relative viability ([4]; first compound 0.5 µM) of 0.555. The relative viability ([4]; first compound 1.581 µM) was 0.505 and the relative viability ([4]; first compound 5 µM) was 0.489.

NCI-H2009 gave a relative viability ([1]; first compound 0.05 µM) of 0.0946, a relative viability ([1]; first compound 0.1581 µM) of 0.153 and a relative viability ([1]; first compound 0.5 µM) of 0.17. The relative viability ([1]; first compound 1.581 µM) was 0.129, the relative viability ([1]; first compound 5 µM) was 0.12 and the relative viability ([2]; first compound 0.05 µM) was 0.141. It also gave a relative viability ([2]; first compound 0.1581 µM) of 0.16, a relative viability ([2]; first compound 0.5 µM) of 0.151 and a relative viability ([2]; first compound 1.581 µM) of 0.161. It also gave a relative viability ([2]; first compound 5 µM) of 0.0978, a relative viability ([3]; first compound 0.05 µM) of 0.139 and a relative viability ([3]; first compound 0.1581 µM) of 0.163. The relative viability ([3]; first compound 0.5 µM) was 0.154, the relative viability ([3]; first compound 1.581 µM) was 0.165 and the relative viability ([3]; first compound 5 µM) was 0.138. It also gave a relative viability ([4]; first compound 0.05 µM) of 0.113, a relative viability ([4]; first compound 0.1581 µM) of 0.135 and a relative viability ([4]; first compound 0.5 µM) of 0.15. It also gave a relative viability ([4]; first compound 1.581 µM) of 0.164 and a relative viability ([4]; first compound 5 µM) of 0.141.

In the case of NCI-H2023, the relative viability ([1]; first compound 0.05 µM) is reported as 0.0569, the relative viability ([1]; first compound 0.1581 µM) is reported as 0.0687 and the relative viability ([1]; first compound 0.5 µM) is reported as 0.0687. For the same cell line, the relative viability ([1]; first compound 1.581 µM) was 0.0508, the relative viability ([1]; first compound 5 µM) was 0.0603 and the relative viability ([2]; first compound 0.05 µM) was 0.0813. It also gave a relative viability ([2]; first compound 0.1581 µM) of 0.0823, a relative viability ([2]; first compound 0.5 µM) of 0.106 and a relative viability ([2]; first compound 1.581 µM) of 0.064. For the same cell line, the relative viability ([2]; first compound 5 µM) was 0.0792, the relative viability ([3]; first compound 0.05 µM) was 0.1 and the relative viability ([3]; first compound 0.1581 µM) was 0.0863. For the same cell line, the relative viability ([3]; first compound 0.5 µM) was 0.0724, the relative viability ([3]; first compound 1.581 µM) was 0.0807 and the relative viability ([3]; first compound 5 µM) was 0.0886. It also gave a relative viability ([4]; first compound 0.05 µM) of 0.0758, a relative viability ([4]; first compound 0.1581 µM) of 0.0838 and a relative viability ([4]; first compound 0.5 µM) of 0.0704. For the same cell line, the relative viability ([4]; first compound 1.581 µM) was 0.0784 and the relative viability ([4]; first compound 5 µM) was 0.0669.

With NCI-H2085 the relative viability ([1]; first compound 0.05 µM) was 0.276, the relative viability ([1]; first compound 0.1581 µM) was 0.214 and the relative viability ([1]; first compound 0.5 µM) was 0.255. The relative viability ([1]; first compound 1.581 µM) was 0.24, the relative viability ([1]; first compound 5 µM) was 0.187 and the relative viability ([2]; first compound 0.05 µM) was 0.341. The relative viability ([2]; first compound 0.1581 µM) was 0.365, the relative viability ([2]; first compound 0.5 µM) was 0.335 and the relative viability ([2]; first compound 1.581 µM) was 0.271. The relative viability ([2]; first compound 5 µM) was 0.325, the relative viability ([3]; first compound 0.05 µM) was 0.222 and the relative viability ([3]; first compound 0.1581 µM) was 0.307. It also gave a relative viability ([3]; first compound 0.5 µM) of 0.242, a relative viability ([3]; first compound 1.581 µM) of 0.223 and a relative viability ([3]; first compound 5 µM) of 0.215. For the same cell line, the relative viability ([4]; first compound 0.05 µM) was 0.288, the relative viability ([4]; first compound 0.1581 µM) was 0.27 and the relative viability ([4]; first compound 0.5 µM) was 0.314. For the same cell line, the relative viability ([4]; first compound 1.581 µM) was 0.282 and the relative viability ([4]; first compound 5 µM) was 0.272.

In the case of NCI-H2087, the relative viability ([1]; first compound 0.05 µM) is reported as 0.132, the relative viability ([1]; first compound 0.1581 µM) is reported as 0.14 and the relative viability ([1]; first compound 0.5 µM) is reported as 0.143. For the same cell line, the relative viability ([1]; first compound 1.581 µM) was 0.122, the relative viability ([1]; first compound 5 µM) was 0.0904 and the relative viability ([2]; first compound 0.05 µM) was 0.196. It also gave a relative viability ([2]; first compound 0.1581 µM) of 0.268, a relative viability ([2]; first compound 0.5 µM) of 0.224 and a relative viability ([2]; first compound 1.581 µM) of 0.195. For the same cell line, the relative viability ([2]; first compound 5 µM) was 0.143, the relative viability ([3]; first compound 0.05 µM) was 0.305 and the relative viability ([3]; first compound 0.1581 µM) was 0.37. For the same cell line, the relative viability ([3]; first compound 0.5 µM) was 0.301, the relative viability ([3]; first compound 1.581 µM) was 0.244 and the relative viability ([3]; first compound 5 µM) was 0.178. The relative viability ([4]; first compound 0.05 µM) was 0.24, the relative viability ([4]; first compound 0.1581 µM) was 0.196 and the relative viability ([4]; first compound 0.5 µM) was 0.246. It also gave a relative viability ([4]; first compound 1.581 µM) of 0.141 and a relative viability ([4]; first compound 5 µM) of 0.151.

NCI-H2126 showed a relative viability ([1]; first compound 0.05 µM) of 0.206, a relative viability ([1]; first compound 0.1581 µM) of 0.225 and a relative viability ([1]; first compound 0.5 µM) of 0.21. The relative viability ([1]; first compound 1.581 µM) was 0.212, the relative viability ([1]; first compound 5 µM) was 0.205 and the relative viability ([2]; first compound 0.05 µM) was 0.242. It also gave a relative viability ([2]; first compound 0.1581 µM) of 0.272, a relative viability ([2]; first compound 0.5 µM) of 0.249 and a relative viability ([2]; first compound 1.581 µM) of 0.236. It also gave a relative viability ([2]; first compound 5 µM) of 0.241, a relative viability ([3]; first compound 0.05 µM) of 0.277 and a relative viability ([3]; first compound 0.1581 µM) of 0.724. The relative viability ([3]; first compound 0.5 µM) was 0.268, the relative viability ([3]; first compound 1.581 µM) was 0.223 and the relative viability ([3]; first compound 5 µM) was 0.246. The relative viability ([4]; first compound 0.05 µM) was 0.327, the relative viability ([4]; first compound 0.1581 µM) was 0.748 and the relative viability ([4]; first compound 0.5 µM) was 0.224. For the same cell line, the relative viability ([4]; first compound 1.581 µM) was 0.218 and the relative viability ([4]; first compound 5 µM) was 0.186.

In the case of NCI-H2228, the relative viability ([1]; first compound 0.05 µM) is reported as 0.116, the relative viability ([1]; first compound 0.1581 µM) is reported as 0.152 and the relative viability ([1]; first compound 0.5 µM) is reported as 0.207. For the same cell line, the relative viability ([1]; first compound 5 µM) was 0.0944, the relative viability ([2]; first compound 0.05 µM) was 0.144 and the relative viability ([2]; first compound 0.1581 µM) was 0.162. The relative viability ([2]; first compound 0.5 µM) was 0.136, the relative viability ([2]; first compound 1.581 µM) was 0.0958 and the relative viability ([2]; first compound 5 µM) was 0.139. It also gave a relative viability ([3]; first compound 0.05 µM) of 0.179, a relative viability ([3]; first compound 0.1581 µM) of 0.273 and a relative viability ([3]; first compound 0.5 µM) of 0.233. The relative viability ([3]; first compound 1.581 µM) was 0.144, the relative viability ([3]; first compound 5 µM) was 0.213 and the relative viability ([4]; first compound 0.05 µM) was 0.154. For the same cell line, the relative viability ([4]; first compound 0.1581 µM) was 0.18, the relative viability ([4]; first compound 0.5 µM) was 0.227 and the relative viability ([4]; first compound 1.581 µM) was 0.124. It also gave a relative viability ([4]; first compound 5 µM) of 0.147.

With NCI-H2347 the relative viability ([1]; first compound 0.05 µM) was 0.242, the relative viability ([1]; first compound 0.1581 µM) was 0.208 and the relative viability ([1]; first compound 0.5 µM) was 0.255. For the same cell line, the relative viability ([1]; first compound 1.581 µM) was 0.234, the relative viability ([1]; first compound 5 µM) was 0.218 and the relative viability ([2]; first compound 0.05 µM) was 0.401. For the same cell line, the relative viability ([2]; first compound 0.1581 µM) was 0.394, the relative viability ([2]; first compound 0.5 µM) was 0.324 and the relative viability ([2]; first compound 1.581 µM) was 0.294. The relative viability ([2]; first compound 5 µM) was 0.541, the relative viability ([3]; first compound 0.05 µM) was 0.295 and the relative viability ([3]; first compound 0.1581 µM) was 0.372. For the same cell line, the relative viability ([3]; first compound 0.5 µM) was 0.325, the relative viability ([3]; first compound 1.581 µM) was 0.255 and the relative viability ([3]; first compound 5 µM) was 0.314. For the same cell line, the relative viability ([4]; first compound 0.05 µM) was 0.312, the relative viability ([4]; first compound 0.1581 µM) was 0.254 and the relative viability ([4]; first compound 0.5 µM) was 0.296. It also gave a relative viability ([4]; first compound 1.581 µM) of 0.274 and a relative viability ([4]; first compound 5 µM) of 0.352.
